These results are taken from patent US5457091A, “N1-substituted 1H-1,2,3-triazolo[4,5,-D]pyrimidines, a process for their preparation and their use as antiviral agents” (priority 1992, dated 1995).

Structures are written as SMILES. Values after ≈ are worked out from the molar mass of the structure shown. Where two headings read alike, the source gives them in different places.

The subject of one series is HSV-1 corneae. The series can be described thus: CPE inhibition, HSV-1 corneae in Vero cells. The series is classed as cell-based, type 1 herpes simplex virus. The conditions noted are these: Human alphaherpesvirus 1, MIC = concentration protecting 50% of cells from CPE. The method, then:
(§1) The antiviral activity of the test substances on various human pathogenic DNA and RNA viruses was investigated in cell culture test systems.
(§2) The test substances are diluted in ethanol to a final concentration of 1 mg/ml before the test, and Dulbecco's minimal essential medium (MEM) is used for further dilution steps. For the test, serial 3-fold dilutions of the test substances are made up in 96-well microtiter plates. Monkey kidney cells (Veto) in medium199 (5% FCS) or human embryonic diploid pulmonary fibroblast cells MRC-5 (Whittaker) are added in a concentration of 2×10^4 cells/well and incubated at 37° C. (5% CO2) for 3 h.
(§3) The test mixtures contain the test substance in concentrations from 400 μg/ml to 0.18 μg/ml in MEM supplemented with 4% FCS (HeLa) or 2% FCS (Veto), 100 U/ml penicillin G and 100 μg/ml streptomycin.
(§4) The cells are then infected with type 1 herpes simplex virus (corneas), type I herpes simplex virus VR733, type 1 herpes simplex virus VR539 (hominis), type 2 herpes simplex virus VR734 (MS), human cytomegalovirus VR977 or varicella zoster virus VR586 in concentrations at which the cell lawn is completely destroyed within 3 days (CMV: 7 days, VZV: 10 days) (for example HSV-1 corneae: 0.035 PFU/Vero cell, HSV-2: 0.066 PFU/Vero cell).
(§5) The cultures are incubated at 37° C. in the presence of 5% CO2. All the investigations are carried out as duplicate determinations; controls are determined only once per plate.
(§6) The untreated infection controls show a complete cytopathogenic effect (CPE) after incubation for a further 48 h (HCMV after 6 days, VZV after 9 days). After microscopic inspection of the cell cultures (HSV, HCMV, VZV), they are then stained (only HSV) with neutral red in accordance with the vital staining method of Finter (1966). The antiviral activity of a test substance is defined as the minimum inhibitory concentration (MIC) which is required to protect 50% of the cells from the cytopathogenic effect of the virus.

The next series concerns HSV-1 VR733. As to the kind of experiment: CPE inhibition, HSV-1 VR733 in Vero cells. The series is classed as cell-based, type 1 herpes simplex virus. Conditions: Human alphaherpesvirus 1, MIC = concentration protecting 50% of cells from CPE. The method, then:
as §1, §2, §3, §4, §5, §6

The subject of the next series is HSV-1 VR539. As to the kind of experiment: CPE inhibition, HSV-1 VR539 in Vero cells. The series is classed as cell-based, type 1 herpes simplex virus. Conditions: Human alphaherpesvirus 1, MIC = concentration protecting 50% of cells from CPE. As to the method: as §1, §2, §3, §4, §5, §6
Another series has as its system HSV-1 labialis. The series can be described thus: CPE inhibition, HSV-1 labialis in Vero cells. The series is classed as cell-based, type 1 herpes simplex virus. The conditions noted are these: Human alphaherpesvirus 1, MIC = concentration protecting 50% of cells from CPE. The method, then:
as §1, §2, §3, §4, §5, §6

Another series has as its system HSV-2 VR734. As to the kind of experiment: CPE inhibition, HSV-2 VR734 in Vero cells. Format: cell-based, type 2 herpes simplex virus. The conditions noted are these: Human alphaherpesvirus 2, MIC = concentration protecting 50% of cells from CPE. The method, then:
as §1, §2, §3, §4, §5, §6

For a further series, the system named is HCMV VR977. The series can be described thus: CPE inhibition, HCMV VR977 in MRC-5 cells. The series is classed as cell-based, human cytomegalovirus. The conditions noted are these: Human betaherpesvirus 5, MRC5, MIC = concentration protecting 50% of cells from CPE. The method, then:
as §1, §2, §3, §4, §5, §6

Series [1] in a line: Cytotoxicity by microscopic inspection, Vero cells. Format: cell-based. Conditions: monkey. The method, then:
as §2, §3, §5
(§7) After incubation for 24 h, the cytotoxicity of the test substances is determined by microscopic inspection of the cell cultures. The maximum tolerated dose (MTD) is designated as the highest concentration of product which, under the said test conditions, is insufficient to cause microscopically detectable cell damage.

The nature of series [2]: Cytotoxicity by microscopic inspection, MRC-5 cells. Format: cell-based. The conditions noted are these: human, read-out: MTD (maximum tolerated dose). The method, then:
as §2, §3, §5, §7

A further series has as its system herpesviruses. The series can be described thus: Antiviral activity against herpesviruses (general statement). Conditions: in words.
Another series deals with VZV VR586. As to the kind of experiment: CPE inhibition, VZV VR586 in MRC-5 cells. The series is classed as cell-based, varicella zoster virus. Conditions: Human alphaherpesvirus 3, MRC5, read-out: MIC VZV VR586. The method, then:
as §1, §2, §3, §5
After microscopic inspection of the cell cultures (HSV, HCMV, VZV), they are then stained (only HSV) with neutral red in accordance with the vital staining method of Finter (1966). The antiviral activity of a test substance is defined as the minimum inhibitory concentration (MIC) which is required to protect 50% of the cells from the cytopathogenic effect of the virus.

For a further series, the system named is HSV-1. As to the kind of experiment: Therapeutic efficacy in NMRI mice infected intraperitoneally with HSV-1. Format: in vivo. Conditions: for Surviving/group size: observed 2 weeks; for ED50: Human alphaherpesvirus 1, from Reed & Muench, read-out: IC50 (the source's name).
[3] abbreviates: Vero cells, 24 h, read-out: MTD (maximum tolerated dose).

As to `Nc1nc2c(ncn2COCCO)c(=O)[nH]1` [Aciclovir, reference compound], the EC50 in the series on HSV-1 corneae is at most 0.98 µg/mL; in the series with HSV-1 VR733, 0.56 µg/mL (≈ 2.49 µM); with HSV-1 VR539, 0.98 µg/mL (≈ 4.35 µM); with HSV-1 labialis, 0.56 µg/mL (≈ 2.49 µM); in the series with HSV-2 VR734 it was at most 0.4 µg/mL; in the series with HCMV VR977, 1.16 µg/mL (≈ 5.15 µM). Moreover, the MNTC at 24 h in series [1] (vero cells) and in [2] was at least 400 µg/mL each time.

Take `CC(C)OCC(COC(C)C)OCn1nnc2nc(N)ncc21` [Example 7, 5-amino-1H-1-[(1,3-bis-isopropoxy-2-propoxy)methyl]-1,2,3-triazolo[4,5-d]pyrimidine]: in the series with herpesviruses, the activity against herpesviruses entry is on record as “particularly high activity against herpesviruses”.

Take `CC(=O)Nc1ncc2c(nnn2COC(CO)CO)n1` [Example 8, 5-acetamido-1H-1-[(1,3-dihydroxy-2-propoxy)methyl]-1,2,3-triazolo[4,5-d]pyrimidine]: the EC50 in the series on HSV-1 corneae turned out to be 11.5 µg/mL (≈ 40.8 µM); in the series with HSV-1 VR733, 6.58 µg/mL (≈ 23.3 µM); in the series on HSV-1 VR539 it was 24.7 µg/mL (≈ 87.5 µM); with HSV-1 labialis, 7.68 µg/mL (≈ 27.2 µM); in the series on HSV-2 VR734, 37 µg/mL (≈ 131 µM); in the series with HCMV VR977, 7.13 µg/mL (≈ 25.3 µM). In addition, the EC50 in the series on VZV VR586 turned out to be 0.18 µg/mL (≈ 0.638 µM). Moreover, the values for the MNTC at 24 h in series [1] (setting [3]) and in [2] were at least 333 µg/mL and at least 311 µg/mL, respectively.

With `Nc1ncc2c(nnn2COC(CO)CO)n1` [Example 9, 5-amino-1H-1-[(1,3-dihydroxy-2-propoxy)methyl]-1,2,3-triazolo[4,5-d]pyrimidine], the EC50 was 1.65 µg/mL (≈ 6.87 µM) in the series with HSV-1 corneae; 1.28 µg/mL (≈ 5.33 µM) with HSV-1 VR733; 4.94 µg/mL (≈ 20.6 µM) with HSV-1 VR539; 1.1 µg/mL (≈ 4.58 µM) in the series on HSV-1 labialis; 2.93 µg/mL (≈ 12.2 µM) in the series on HSV-2 VR734; below 0.27 µg/mL in the series on HCMV VR977. In addition, the EC50 in the series with VZV VR586 was below 0.18 µg/mL. The results for the MNTC at 24 h in series [1] (setting [3]) and in series [2] were at least 333 µg/mL and at least 356 µg/mL, respectively. In addition, the Average survival time with HSV-1 (9 × 3 μmol/kg ip) is 6.3 ± 0.6 days; in the series on HSV-1 (9 × 3 μmol/kg po), 8.8 ± 1.6 days; with HSV-1 (9 × 10 μmol/kg po) it was 6.2 ± 0.5 days; in the series on HSV-1 (9 × 30 μmol/kg po), 8.0 ± 1.7 days. Besides, the Surviving/group size in the series on HSV-1 (9 × 3 μmol/kg ip) is 2/5; in the series on HSV-1 (9 × 3 μmol/kg po), 0/5; with HSV-1 (9 × 10 μmol/kg ip), 5/5; in the series with HSV-1 (9 × 10 μmol/kg po), 0/5; with HSV-1 (9 × 30 μmol/kg ip) it was 5/5; with HSV-1 (9 × 30 μmol/kg po) it was 0/5. Besides, the ED50 in the series on HSV-1 (ip) is 3.7 µmol/kg; in the series with HSV-1 (po), above 30 µmol/kg. In the series with herpesviruses, the activity against herpesviruses result is listed as “particularly high activity against herpesviruses”.

In the case of `CC(=O)OCC(COC(C)=O)OCn1nnc2nc(N)ncc21` [Example 10, 5-amino-1H-1-[(1,3-diacetoxy-2-propoxy)methyl]-1,2,3-triazolo [4,5-d]pyrimidine], the EC50 with HSV-1 corneae was 14.8 µg/mL (≈ 45.7 µM); in the series on HSV-1 VR733 it was 11.5 µg/mL (≈ 35.5 µM); in the series with HSV-1 VR539 it was 24.7 µg/mL (≈ 76.1 µM); with HSV-1 labialis, 9.88 µg/mL (≈ 30.5 µM); with HSV-2 VR734, 24.7 µg/mL (≈ 76.1 µM); in the series with HCMV VR977 it was below 0.3 µg/mL. In addition, in the series with VZV VR586, the EC50 is below 0.18 µg/mL. Moreover, the MNTC at 24 h in [1] (setting [3]) was at least 311 µg/mL; in series [2], at least 74.1 µg/mL. Also, the Average survival time in the series on HSV-1 (9 × 9 μmol/kg ip) was 11.0 ± 1.4 days; in the series on HSV-1 (9 × 9 μmol/kg po) it was 8.8 ± 1.8 days; with HSV-1 (9 × 31 μmol/kg po), 12.0 days. For the same molecule, the Surviving/group size in the series with HSV-1 (9 × 9 μmol/kg ip) was 3/5; with HSV-1 (9 × 9 μmol/kg po), 0/5; in the series with HSV-1 (9 × 31 μmol/kg ip), 5/5; in the series with HSV-1 (9 × 31 μmol/kg po), 4/5; in the series with HSV-1 (9 × 93 μmol/kg ip), 5/5; with HSV-1 (9 × 93 μmol/kg po), 5/5. Moreover, the ED50 is below 9 µmol/kg with HSV-1 (ip) and 19.7 µmol/kg with HSV-1 (po). For the same molecule, in the series on herpesviruses, the activity against herpesviruses result was “particularly high activity against herpesviruses”.

In the case of `Nc1nc(O)c2ncn(COC(CO)CO)c2n1` [Ganciclovir, reference compound], the EC50 in the series on HSV-1 corneae was 0.85 µg/mL (≈ 3.33 µM); in the series on HSV-1 VR733, 0.95 µg/mL (≈ 3.72 µM); in the series with HSV-1 VR539, 1.65 µg/mL (≈ 6.46 µM); with HSV-1 labialis, at most 0.18 µg/mL; in the series with HSV-2 VR734, 1.93 µg/mL (≈ 7.56 µM); in the series on HCMV VR977, 0.06 µg/mL (≈ 0.235 µM). For the same molecule, in the series with VZV VR586, the EC50 was 6.13 µg/mL (≈ 24 µM). Further, the MNTC at 24 h in series [1] (setting [3]) and in series [2] was at least 400 µg/mL throughout. In addition, the results for the Average survival time in the series on HSV-1 (9 × 3 μmol/kg ip), in the series with HSV-1 (9 × 3 μmol/kg po) and in the series on HSV-1 (9 × 10 μmol/kg po) were 8.0 ± 0 days, 11.3 ± 1.5 days and 9.5 ± 0.7 days, respectively. For the same molecule, the Surviving/group size in the series on HSV-1 (9 × 3 μmol/kg ip) is 3/5; in the series on HSV-1 (9 × 3 μmol/kg po), 1/5; in the series with HSV-1 (9 × 10 μmol/kg ip), 5/5; in the series on HSV-1 (9 × 10 μmol/kg po), 3/5; in the series on HSV-1 (9 × 30 μmol/kg ip) it was 5/5; in the series with HSV-1 (9 × 30 μmol/kg po), 5/5. Also, the ED50 in the series with HSV-1 (ip) is below 3 µmol/kg; in the series with HSV-1 (po) it was 6.8 µmol/kg.
